Test results as given in BindingDB's records for doi:10.1021/acsmedchemlett.7b00188 (Wuxi Apptec (Shanghai), 2017).

Assay: Inhibition of Enterovirus 71 Shenzhen/120F1/09 capsid infected in human RD cells assessed as reduction in virus-induced cell death after 72 hrs by CCK-8 assay

SMILES	EC50
CCO/N=C1\CCCc2cc(OCCCCCN3CCN(c4ccnc(N)c4)S3(=O)=O)ccc21	309 nM
CCO/N=C(\C)c1ccc(OCCCCCN2CCN(c3ccnc(N)c3)S2(=O)=O)cc1	600 nM
O=C1C(=O)N(c2ccncc2)CCN1CCCCCOc1ccc(-c2ccc(Cl)cc2)cc1	> 1000 nM
CCO/N=C/c1ccc(OCCC(C)CCN2CCN(c3ccnc(N)c3)C2=O)cc1 (configuration not stated)	0.03 nM
S=C1N(CCCCCOc2ccc(-c3ccc(Cl)cc3)cc2)CCN1c1ccncc1	2800 nM
CCn1ncc2cc(OCCCCCN3CCN(c4ccnc(N)c4)S3(=O)=O)ccc21	> 1000 nM
Cc1cc(CCCOc2c(C)cc(-c3noc(C(F)(F)F)n3)cc2C)on1 [3-(3,5-dimethyl-4-(3-(3-methylisoxazol-5-yl)propoxy)phenyl)-5-(trifluoromethyl)-1,2,4-oxadiazole]	> 100000 nM
NC(=O)c1ncn([C@@H]2O[C@H](CO)[C@@H](O)[C@H]2O)n1 [Tribavirin]	> 100000 nM
CCc1noc2cc(OCCCCCN3CCN(c4ccnc(N)c4)S3(=O)=O)ccc12	352 nM
O=C1N(CCCCC2CCc3cc(-c4ccc(Cl)cc4)ccc3O2)CCN1c1ccncc1 (configuration not stated)	48 nM
O=C1CC(CCCCN2CCN(c3ccncc3)C2=O)Oc2ccc(-c3ccc(Cl)cc3)cc21 (configuration not stated)	540 nM
CCO/N=C(\CC)c1ccc(OCCCCCN2CCN(c3ccnc(N)c3)S2(=O)=O)cc1	554 nM
CCn1ccc2cc(OCCCCCN3CCN(c4ccnc(N)c4)S3(=O)=O)ccc21	> 1000 nM
O=S1(=O)N(CCCCCOc2ccc(-c3ccc(Cl)cc3)cc2)CCN1c1ccncc1	110 nM
CCO/N=C/c1ccc(OCCCCCN2CCN(c3ccnc(N)c3)S2(=O)=O)cc1	0.9 nM
O=C1CN(CCCCCOc2ccc(-c3ccc(Cl)cc3)cc2)CCN1c1ccncc1	1200 nM
O=C1CN(c2ccncc2)CCN1CCCCCOc1ccc(-c2ccc(Cl)cc2)cc1	180 nM
CCO/N=C1\CCc2cc(OCCCCCN3CCN(c4ccnc(N)c4)S3(=O)=O)ccc21	4 nM
Nc1cc(N2CCN(CCCCCOc3ccc(-c4ccc(Cl)cc4)cc3)S2(=O)=O)ccn1	12 nM
O=C1N(CCCCc2nc3cc(-c4ccc(Cl)cc4)ccc3o2)CCN1c1ccncc1	1100 nM
O=C1N(CCCCCOc2ccc(-c3ccc(Cl)cc3)cc2)CCN1c1ccncc1 [1-[5-(4''-Chloro-biphenyl-4-yloxy)-pentyl]-3-pyridin-4-yl-imidazolidin-2-one]	91 nM
O=C1N(CCCCc2cc3cc(-c4ccc(Cl)cc4)ccc3o2)CCN1c1ccncc1	1100 nM
